From patent publication US20240228390A1, “Chelated Nutrients and Methods of Use Thereof” (ICL AMERICA DO SUL S.A., priority 2021, published 2024)

Test: Stability testing at different pH levels
Format: physicochemical
Conditions: Chelate A (glutamic acid + malic acid)
Experimental: Stability testing at different PH levels was performed and turning to Table 1, there is a large range of the chelates' stability, wherein the structure of the chelates can be considered stable.

- Stability pH of the chelates, Acid medium (acid limit of stable pH range): 0.20
- Stability pH of the chelates, Alkaline medium (alkaline limit of stable pH range): 11.30
Substance: [Zn(Glu)(Mal)]2Na [Chelate A Zn^2+]
